Columns and labels:
[1] = tested on: HCV replication complexes in Huh-7.5/HCV Con1sg Rluc cells; test: Indirect immunofluorescence staining of NS5A (replication complexes); format: cell-based, hepatitis C virus; details: 10 μM, 72 hours
Procedure: For indirect immunofluorescence staining, Huh-7.5/HCV Con1sg Rluc cells were plated on cover slips in a 24-well plate. The next day, compounds were added at a 10 μM concentration and after 48 hours from the first addition, the medium was supplemented with 10 μM compound. Interferon alpha-2b was used as positive control at 100 U/well and added at the same time points as compounds. After 72 hours, indirect immunofluorescence staining was performed according to standard methods. Cells were fixed in 1% PFA for 40 minutes, washed thrice with 5 mL PBS, permeabilized with 0.05% saponin (Sigma) and blocked with 3% BSA in PBS for 1 hour at 37° C. Subsequently, cells were washed with 2 mL PBS three times and incubated with mouse monoclonal antibody 9E10 against NS5A diluted in blocking buffer for 1 hour at room temperature. Cells were washed three times with 2 ml PBS and once with 3% BSA. The cells were then incubated with ALEXA 546 conjugated-goat F(ab′)2 anti-mouse immunoglobulin G (IgG) (Invitrogen) for 1 hour at room temperature. Cells were washed twice with PBS and then mounted on glass slides using PROLONG Gold anti-fade reagent (Invitrogen). Appropriate controls were performed to rule out nonspecific binding of primary and secondary antibodies.
Microscopy was performed with a Nikon Ti-E inverted fluorescence microscope using a 20× and 40×/NA 1.4 objective. […]

in vitro = format: cell-based; details: human
Procedure: Immortalized human hepatocytes, Fa2N-4 cells (XenoTech) were seeded at ˜50,000 cells/well, and incubated with a range of concentrations (0.01-50 μM) of compound 17, in duplicate, for 24 hours at 37° C., 5% CO2. Cell viability was determined by cellular ATP levels using the Luminescence ATP Detection Assay System (ATPLITE 1 step, Perkin Elmer) and the Infinite M200 plate reader (Tecan). Camptothecin (highly toxic) and Terfenadine (highly non-toxic) were used as standards. Final DMSO concentration was 0.5%.

[2] = Hepatic microsome stability, mouse; format: in vitro ADME; details: percent remaining at 1 hour
Procedure: Metabolic stability was assessed in the presence of human liver microsomes (XenoTech) and mouse liver mirosomes (XenoTech). All liquid was dispensed and transfer steps were performed with the FREEDOM EVO automated liquid handler (Tecan US). NADPH, a required cofactor for CYP450 metabolism, was provided by the NADPH Regenerating System, Solutions A (BD Biosciences) and B (BD Biosciences). Compound stock solutions were initially prepared in 100% DMSO and subsequently diluted in acetonitrile for the assay. The pH of the reactions was kept at ˜7.4 with potassium phosphate buffer (BD Biosciences). The reactions were started after adding NADPH to the reaction plate containing microsomes and compounds and time 0 minutes aliquots were promptly collected and mixed with ice cold acetonitrile (spiked with internal standards) to quench the reactions. The remainder of the reaction volume was incubated at 37° C. with shaking. […] The amount of compound in the supernatant was determined by LC/MS/MS (Applied Biosystems, Sciex API4000 Q-TRAP) and the percent of parent compound remaining after 60 minutes was calculated by the following formula: % parent compound remaining=[(concentration at 60 minutes/concentration at 0 minutes)×100]. […] Results reported are the mean of each reaction triplicate, normalized to the internal standard, and expressed as a percent compound remaining after the incubation time. […]

Plasma stability, human = format: in vitro ADME; details: percent remaining at 3 hours
Procedure: Stability of compounds in human plasma (BioChemed Services) and mouse plasma (BioChemed Services) were determined. All liquid was dispensed and transfer steps were performed with the FREEDOM EVO automated liquid handler (Tecan US). Plasma was allowed to thaw at room temperature prior to preparing the assay solution of plasma:1×PBS (1:1). The assay solution was warmed up at 37° C. prior of adding the compound. Immediately after compounds were added, time 0 minute aliquots were promptly collected and mixed with cold acetonitrile (spiked with an internal standard). The remainder of the reaction volume was incubated at 37° C. with shaking. Additional aliquots were collected 180 minutes after the start of the reaction and promptly quenched with cold acetonitrile (spiked with an internal standard). Samples were centrifuged at 3000 rpm for 10 minutes. The amount of compound in the supernatant was determined by LC/MS/MS (Applied Biosystems, Sciex API4000 Q-TRAP) and the percent of parent compound remaining after 180 minutes was calculated by the following formula: % parent compound remaining=[(concentration at 180 minutes/concentration at 0 minutes)×100]. Results reported are the mean of each reaction duplicate, normalized to the internal standard, and expressed as a percent of compound remaining after the incubation time. […]

| SMILES | number of HCV replication complexes (NS5A staining) [1] | CC50 at 24 h (in vitro) [µM] | Hepatic Microsome Stability Mouse [2] [%] | Plasma Stability Human (Plasma stability, human) [%] |
| --- | --- | --- | --- | --- |
| Cc1ccc2nc(-c3ccc4nc(-c5ccc(NC(=O)c6cc(C(F)(F)F)cc(C(F)(F)F)c6)cc5)sc4c3)sc2c1S(=O)(=O)O [Compound 24, 2′-(4-(3,5-bis(trifluoromethyl)benzamido)phenyl)-6-methyl-[2,6′-bibenzo[d]thiazole]-7-sulfonic acid] | lower number of replication complexes | – | – | – |
| Cc1ccc2nc(-c3ccc4nc(-c5ccc(NC(=O)c6cccc(Cl)c6)cc5)sc4c3)sc2c1S(=O)(=O)O [Compound 17, 2′-(4-(3-chlorobenzamido)phenyl)-6-methyl-[2,6′-bibenzo[d]thiazole]-7-sulfonic acid] | – | > 50 | 83.11 | 96.6 |
